Laboratory results reported in patent US12527800B2, “Therapeutic agent for Parkinson's disease” (KYOWA KIRIN CO., LTD., priority 2019, dated 2026).

Test system: patients of Parkinson's disease experiencing motor fluctuations
Assay: Multivariate logistic regression analysis of patient baseline factors associated with efficacy of istradefylline (odds ratios)
Assay type: in vivo, human
Description: The cut-off value for the treatment effect used to determine the efficacy of istradefylline was defined as a reduction in OFF time (1 hour or longer), an increase in ON time without troublesome dyskinesia (1 hour or longer), and an improvement in UPDRS Part III score (3 points or more) from the clinically meaningful point of view. […] Further, with respect to the UPDRS Part II score at OFF state, an improvement of 1 point or more from the sensitivity/(1-specificity) curve (ROC curve) using the UPDRS Part II score and the CGI-I score was defined as the cut-off of the effect.
The study of baseline factors having a favorable effect on the respective outcomes of the efficacy of istradefylline was performed by multivariate logistic regression analysis controlling for 12 baseline factors, which were expressed as the odds ratio (OR) and 95% confidence interval (CI). The efficacy outcomes included daily OFF time, ON time without troublesome dyskinesia, UPDRS Part III score at ON state, CGI-I, and UPDRS Part II score at OFF state. As covariates in the logistic regression analysis, age, sex, the presence or absence of dyskinesia history (determined based on the patient diary at baseline), mean daily OFF time, total UPDRS Part III score, mH&Y score at ON state and OFF state, concomitant drugs, duration of Parkinson's disease (duration of PD), duration of motor complications, L-DOPA dose, and levodopa-equivalent dose were used.
In this study, with respect to the outcomes under the treatment with istradefylline, analysis of baseline factors associated with expressing a more favorable effect was performed according to the following three steps. First, interactions between the treatment with istradefylline (two doses: 20 mg and 40 mg) and 12 baseline factors were evaluated based on type III p-value by multivariate logistic regression analysis (an index for evaluating whether or not the heterogeneity (interaction) occurs in the association between the treatment and the outcome due to a certain baseline factor). As the second step, an odds ratio (OR) was estimated for the baseline factor associated with the achievement of a more favorable effect according to the dose group of istradefylline if a significant interaction is observed between the treatment with istradefylline and the baseline factor. In addition, OR was estimated for the baseline factor associated with the achievement of a more favorable effect in all patient groups if an interaction is not observed between the treatment with istradefylline and the baseline factor.
A two-tailed p value <0.05 and an interaction p value <0.10 were determined to be statistically significant. All analyses were performed using SAS software version 9.2 or 9.3 (SAS Institute, Inc., Cary, N.C., USA).

[1] = age ≥65 vs <65 y (ref), 20 and 40 mg/day together
[2] = baseline UPDRS Part III score ≥20 vs <20 (ref), 20 and 40 mg/day together
[3] = baseline m Hoehn & Yahr scale at OFF state ≥3 vs <3 (ref), 20 and 40 mg/day together
[4] = baseline mean daily OFF time 4 to <8 h vs <4 h (ref), 20 mg/day
[5] = baseline mean daily OFF time 4 to <8 h vs <4 h (ref), 40 mg/day
[6] = baseline mean daily OFF time 4 to <8 h vs <4 h (ref), 20 and 40 mg/day together
[7] = baseline mean daily OFF time ≥8 h vs <4 h (ref), 20 mg/day
[8] = baseline mean daily OFF time ≥8 h vs <4 h (ref), 40 mg/day
[9] = baseline mean daily OFF time ≥8 h vs <4 h (ref), 20 and 40 mg/day together

Structure (SMILES): CCn1c(=O)c2c(nc(/C=C/c3ccc(OC)c(OC)c3)n2C)n(CC)c1=O [istradefylline]
- Odds ratio, increase in ON time without troublesome dyskinesia (1 hour or longer) (age ≥65 vs <65 y (ref), 20 mg/day): 1.47
- Odds ratio, increase in ON time without troublesome dyskinesia (1 hour or longer) (age ≥65 vs <65 y (ref), 40 mg/day): 2.88
- Odds ratio, OFF time reduction (1 hour or longer) [1]: 2.65
- Odds ratio, improvement in CGI-I (very much, much or minimally improved) [1]: 1.17
- Odds ratio, improvement in UPDRS Part II score (OFF) [1]: 0.90
- Odds ratio, improvement in UPDRS Part III score (3 points or more) [1]: 0.65
- Odds ratio, OFF time reduction (1 hour or longer) [2]: 0.88
- Odds ratio, improvement in CGI-I (very much, much or minimally improved) [2]: 1.49
- Odds ratio, improvement in UPDRS Part II score (OFF) [2]: 0.79
- Odds ratio, improvement in UPDRS Part III score (3 points or more) [2]: 2.79
- Odds ratio, increase in ON time without troublesome dyskinesia (1 hour or longer) [2]: 0.97
- Odds ratio, improvement in UPDRS Part II score (OFF) (baseline m Hoehn & Yahr scale at OFF state ≥3 vs <3 (ref), 20 mg/day): 0.99
- Odds ratio, improvement in UPDRS Part II score (OFF) (baseline m Hoehn & Yahr scale at OFF state ≥3 vs <3 (ref), 40 mg/day): 3.50
- Odds ratio, OFF time reduction (1 hour or longer) [3]: 0.63
- Odds ratio, improvement in CGI-I (very much, much or minimally improved) [3]: 1.89
- Odds ratio, improvement in UPDRS Part III score (3 points or more) [3]: 1.81
- Odds ratio, increase in ON time without troublesome dyskinesia (1 hour or longer) [3]: 0.60
- Odds ratio, OFF time reduction (1 hour or longer) [4]: 1.27
- Odds ratio, increase in ON time without troublesome dyskinesia (1 hour or longer) [4]: 1.09
- Odds ratio, OFF time reduction (1 hour or longer) [5]: 1.58
- Odds ratio, increase in ON time without troublesome dyskinesia (1 hour or longer) [5]: 0.58
- Odds ratio, improvement in CGI-I (very much, much or minimally improved) [6]: 1.09
- Odds ratio, improvement in UPDRS Part II score (OFF) [6]: 1.00
- Odds ratio, improvement in UPDRS Part III score (3 points or more) [6]: 0.85
- Odds ratio, OFF time reduction (1 hour or longer) [7]: 1.57
- Odds ratio, increase in ON time without troublesome dyskinesia (1 hour or longer) [7]: 1.19
- Odds ratio, OFF time reduction (1 hour or longer) [8]: 6.68
- Odds ratio, increase in ON time without troublesome dyskinesia (1 hour or longer) [8]: 2.38
- Odds ratio, improvement in CGI-I (very much, much or minimally improved) [9]: 0.85
- Odds ratio, improvement in UPDRS Part II score (OFF) [9]: 0.98
- Odds ratio, improvement in UPDRS Part III score (3 points or more) [9]: 0.53
